Consider 10 compounds from ChEMBL document CHEMBL1201862, “PubChem BioAssay data set” (2004).

Among the test systems are ACHN; SNB-75; SF-295; NCI-H460; SK-MEL-28; Hs-578T; UO-31; DU-145; M14; NCI-H23; PC-3; T47D; MCF7; CAKI-1; COLO 205; SF-539; HL-60; UACC-62; HCT-116; HOP-62.
What all share (test): inhibition of tumour cell growth, NCI panel, 48 h

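Grown in 96-well plates, cells were treated for 48 hours with each compound at five concentrations. Insufficient inhibition: endpoint recorded as highest concentration tested. GI50 marks 50% less growth.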 The source made the active and inactive calls. No stated cut-off is given here; in the data, active = GI50 up to about 1.1 µM and inactive = higher. Some results are limits rather than exact numbers.

Turning to `CN1CCC2(c3ccccc3)CC(=O)/C(=C/c3ccc(Cl)c(Cl)c3)C1C2.[O-][Cl+3]([O-])([O-])O` (stereo not drawn), the GI50 was 1.77 µM (inactive) with ACHN; 3.41 µM (inactive) in the assay on SNB-75; 2.43 µM (inactive) in the assay on SF-295; 2.35 µM (inactive) with NCI-H460; 2.1 µM (inactive) in the assay with SK-MEL-28; 4.47 µM (inactive) in the assay with Hs-578T. Moreover, the GI50 is 1.95 µM (inactive) in the assay with UO-31; 3.25 µM (inactive) in the assay on DU-145; 2.96 µM (inactive) in the assay on M14; 2.86 µM (inactive) with NCI-H23; 1.96 µM (inactive) with PC-3; 4.7 µM (inactive) in the assay on T47D. The GI50 in the assay on MCF7 is 3.4 µM (inactive); with CAKI-1 it was 3.94 µM (inactive); in the assay on COLO 205, 1.95 µM (inactive); in the assay on SF-539, 1.98 µM (inactive); in the assay with HL-60, 0.333 µM (active); in the assay with UACC-62 it was 1.51 µM (inactive). In addition, the results for the GI50 in the assay with HCT-116 and with HOP-62 were 2.62 µM (inactive) and 3.37 µM (inactive), respectively.
Take `CC(C)NCC(O)c1ccc(O)c2ncccc12` (stereo not drawn): the GI50 with ACHN is 42.3 µM (inactive); in the assay on SNB-75, > 100 µM (inactive); in the assay on SF-295 it was 30.9 µM (inactive); with NCI-H460, 5.58 µM (inactive); in the assay with SK-MEL-28 it was > 100 µM (inactive); in the assay with Hs-578T it was > 100 µM (inactive). Also, the GI50 in the assay with UO-31 is 67.6 µM (inactive); with DU-145, 37.2 µM (inactive); in the assay with M14 it was 42.4 µM (inactive); in the assay with NCI-H23 it was 11 µM (inactive); in the assay with PC-3, 46.5 µM (inactive); in the assay with T47D, 33.8 µM (inactive). For the same compound, the GI50 was 7.28 µM (inactive) in the assay on MCF7; 64.9 µM (inactive) with CAKI-1; 18.7 µM (inactive) in the assay on COLO 205; 43 µM (inactive) in the assay on SF-539; 24.6 µM (inactive) in the assay with HL-60; 60 µM (inactive) with UACC-62. For the same compound, the results for the GI50 in the assay with HCT-116 and with HOP-62 were 26.4 µM (inactive) and 35.5 µM (inactive), respectively.
Regarding `Cc1cc(C)nc(NC(=S)Nc2ccccc2Cl)c1`, the GI50 in the assay on SNB-75 is 73.1 µM (inactive); in the assay with SF-295 it was > 100 µM (inactive); in the assay on NCI-H460, > 100 µM (inactive); in the assay with SK-MEL-28, > 100 µM (inactive); in the assay on Hs-578T, > 100 µM (inactive); with UO-31, > 100 µM (inactive). The GI50 with DU-145, with M14, in the assay on PC-3, with T47D, in the assay on MCF7 and in the assay on CAKI-1 was > 100 µM (inactive) each time. The GI50 in the assay with COLO 205, in the assay with SF-539, in the assay with HL-60, with UACC-62, with HCT-116 and with HOP-62 was > 100 µM (inactive) throughout.
Take `O=C(c1ccccc1)c1ccc2[nH]c(-c3c(Cl)c(Cl)c(Cl)c(Cl)c3-c3nnc(-c4ccccc4)o3)nc2c1`: the GI50 is 69.7 µM (inactive) in the assay with ACHN; 8.81 µM (inactive) in the assay with SNB-75; 14.1 µM (inactive) in the assay with SF-295; > 100 µM (inactive) in the assay with SK-MEL-28; 27.4 µM (inactive) in the assay with Hs-578T; 49.3 µM (inactive) with UO-31. Moreover, the GI50 was 70.5 µM (inactive) in the assay on DU-145; 28.2 µM (inactive) in the assay with M14; 31.7 µM (inactive) in the assay with NCI-H23; 20.7 µM (inactive) in the assay with PC-3; 23.9 µM (inactive) in the assay with T47D; 9.79 µM (inactive) in the assay with MCF7. The GI50 in the assay with CAKI-1 is 40.4 µM (inactive); in the assay with COLO 205 it was 18.3 µM (inactive); in the assay with SF-539, 19.4 µM (inactive); with HL-60, 11.5 µM (inactive); in the assay on HCT-116, 27.4 µM (inactive); in the assay with HOP-62, 25.8 µM (inactive).
For the compound `COc1ccc(C2=C3SC=c4ccccc4=C3ON=C2c2ccccc2)cc1`, the GI50 with ACHN, in the assay on SF-295, in the assay with NCI-H460, in the assay on SK-MEL-28, in the assay with Hs-578T and in the assay with UO-31 was > 100 µM (inactive) in each case. In addition, the GI50 in the assay on DU-145 is > 100 µM (inactive); with M14 it was > 100 µM (inactive); in the assay with NCI-H23, > 100 µM (inactive); in the assay on PC-3, > 100 µM (inactive); in the assay on T47D, 25.4 µM (inactive); in the assay with MCF7, > 100 µM (inactive). The GI50 was > 100 µM (inactive) with CAKI-1; > 100 µM (inactive) in the assay with COLO 205; > 100 µM (inactive) in the assay with SF-539; > 100 µM (inactive) in the assay with HL-60; > 100 µM (inactive) with UACC-62; 57.4 µM (inactive) in the assay with HCT-116. For the same compound, the GI50 in the assay with HOP-62 was > 100 µM (inactive).
For the compound `Cl.O=C(O)c1cccnc1`, the GI50 in the assay on ACHN, in the assay on SNB-75, with SF-295, with NCI-H460, with SK-MEL-28 and with Hs-578T was > 100 µM (inactive) throughout. For the same compound, the GI50 in the assay on UO-31, with DU-145, in the assay on M14, in the assay with NCI-H23, in the assay on PC-3 and in the assay on T47D was > 100 µM (inactive) throughout. For the same compound, the GI50 in the assay with MCF7 was > 100 µM (inactive); in the assay on CAKI-1, > 100 µM (inactive); in the assay on COLO 205, > 100 µM (inactive); in the assay on SF-539 it was 34.8 µM (inactive); in the assay with HL-60 it was > 100 µM (inactive); in the assay with HCT-116, > 100 µM (inactive). For the same compound, in the assay on HOP-62, the GI50 is > 100 µM (inactive).
With `CC(=O)c1c(O)c(C)c(O)c(Cc2c(O)c3c(c(C(=O)/C=C/c4ccccc4)c2O)OC(C)(C)C=C3)c1O` [ROTTLERIN], the GI50 in the assay with ACHN is 3.51 µM (inactive); in the assay with SNB-75 it was 1.27 µM (inactive); in the assay on SF-295 it was 2.85 µM (inactive); with NCI-H460 it was 2.94 µM (inactive); in the assay with SK-MEL-28, 2.86 µM (inactive); in the assay with Hs-578T it was 3.65 µM (inactive). In addition, the GI50 in the assay on UO-31 was 2.26 µM (inactive); with DU-145, 3.49 µM (inactive); in the assay with M14, 3.23 µM (inactive); in the assay with NCI-H23 it was 2.37 µM (inactive); with PC-3 it was 1.11 µM (active); in the assay with T47D, 1.85 µM (inactive). Moreover, the GI50 in the assay on MCF7 is 3.13 µM (inactive); with CAKI-1 it was 2.91 µM (inactive); in the assay on COLO 205 it was 1.68 µM (inactive); in the assay with SF-539, 2.99 µM (inactive); with HL-60, 2.64 µM (inactive); in the assay with UACC-62 it was 2.95 µM (inactive). The GI50 with HCT-116 is 1.82 µM (inactive).
On to `CCOC(=O)c1cc(C2=C(S)N(CC(C)CC)CC2)c(C(=O)CC)[nH]1` (stereo not drawn), for which the GI50 in the assay with ACHN is 15.3 µM (inactive); in the assay with SNB-75, 19.7 µM (inactive); with SF-295, 18.2 µM (inactive); with NCI-H460, 20.6 µM (inactive); in the assay on SK-MEL-28, 19.5 µM (inactive); with Hs-578T, 26.9 µM (inactive). Besides, the GI50 with UO-31 is 16.8 µM (inactive); with DU-145, 16.6 µM (inactive); in the assay on NCI-H23, 19.5 µM (inactive); in the assay on PC-3, 19.7 µM (inactive); in the assay on T47D, 7.53 µM (inactive); in the assay with MCF7, 21.3 µM (inactive). Also, the GI50 in the assay on CAKI-1 was 12.9 µM (inactive); in the assay on COLO 205, 11 µM (inactive); in the assay on SF-539, 12 µM (inactive); in the assay with HL-60, 5.36 µM (inactive); with UACC-62 it was 16.6 µM (inactive); in the assay on HCT-116, 15.3 µM (inactive).
As to `O=C(C(Cl)=C(N1CCCCC1)N1CCCCC1)C(Cl)Cl`, the GI50 with ACHN, with SF-295, with NCI-H460, in the assay with SK-MEL-28, in the assay on Hs-578T and in the assay on UO-31 was > 100 µM (inactive) in each case. Moreover, the GI50 in the assay with DU-145, with M14, in the assay on NCI-H23, with PC-3, with T47D and in the assay on MCF7 was > 100 µM (inactive) each time. In addition, the GI50 with CAKI-1 was 21.4 µM (inactive); in the assay on COLO 205 it was > 100 µM (inactive); in the assay with SF-539 it was > 100 µM (inactive); with HL-60 it was > 100 µM (inactive); with UACC-62 it was > 100 µM (inactive); in the assay with HCT-116, > 100 µM (inactive). Further, the GI50 with HOP-62 is > 100 µM (inactive).
Regarding `CC1(C)OC2C(O)C(CO)OC2(C(F)F)O1` (stereo not drawn), the GI50 in the assay with SNB-75 is > 100 µM (inactive); in the assay on SF-295, > 100 µM (inactive); with NCI-H460, > 100 µM (inactive); in the assay on SK-MEL-28, > 100 µM (inactive); with Hs-578T it was > 100 µM (inactive); with UO-31 it was > 31.3 µM (inactive). Moreover, the GI50 with DU-145, in the assay with M14, in the assay with PC-3, in the assay on T47D, in the assay on MCF7 and with CAKI-1 was > 100 µM (inactive) each time. Also, the GI50 with COLO 205, in the assay with SF-539, with HL-60, in the assay with UACC-62, with HCT-116 and in the assay on HOP-62 was > 100 µM (inactive) each time.
